According to patent publication US20050004018A1, “Use of antitumoral compound in cancer therapy” (priority 2001, published 2005):
Where two headings read alike, the source gives them in different places.

What was measured:
[1] = tested on: cancer patients; assay: phase I clinical trial, 3 hours iv infusion weekly for 3 consecutive weeks every 4 weeks; type: in vivo, human
Description: A phase I clinical trial was carried out with the following protocol:
Dose schedule: ET-743 will be administered every week as a 3hours iv infusion for 3 consecutive weeks every 4 weeks.
Starting dose and dose escalation: The starting dose will be 300 μg/m^2 weekly of ET-743 given as a intravenous infusion over 3 hours for 3 consecutive weeks every 4 weeks. Patients will be sequentially enrolled into the following dose cohorts beginning at dose Level 1. A minimum cohort size of 3 patients will be treated at each of the dose levels.
Accrual at the next higher dose level: At least 1 patient at each dose level must have completed 1 cycle of therapy and two patients must have completed treatment on day 15 before a new patient can be treated at the next highest dose. Conditions for retreatment: Patients are eligible for retreatment […] intolerable toxicity, the patient desires further treatment, and fulfill the eligibility criteria. Dose Limiting Toxicities (DLTs)
Dose limiting toxicities (DLT) will be defined as follows: • ANC <500/μL for longer than 5 days. • ANC <500/μL accompanied by fever (at least 100.5° F.). • Platelets <25,000/μL. • Any grade 3-4 nonhematological toxicity except nausea/vomiting (provided the patient is receiving an optimal antiemetic regimen consisting of dexamethasone and a serotonin antagonist on an optimal dose-schedule for prophylaxis and management), alopecia. Grade 3 or 4 elevation in trasaminases that result in either omission of 2 scheduled treatments within a cycle or delay in the initiation of a subsequent course exceeding 2 weeks. • Missing at least 2 scheduled treatments during a single course due to drug-induced toxicity (missed doses will not be made up). • Delay in the initiation of a subsequent course of treatment exceeding 2 weeks. Determination of the Maximum Tolerated Dose (MTD)
Cohort of 3 patients will be treated at each dose level. If no DLT is seen during the first cycle in the cohort of patients at any given dose level, new patients may be treated at the next higher level.
If any patient encounters drug-induced DLT during either cycle 1 or 2, a maximum of 6 patients may be treated at that level. If DLT is not observed in the additional patients, new patients may be treated at the next higher dose level.
If at least 2 patients experience DLT at any given dose level, this dose level will be considered the Maximum Tolerated Dose (MTD). However, it is possible that additional patients may experience DLT due to the timing of patient enrollment into that dose level.
Once an MTD level is established, subsequent patients should be treated at the next lower dose level. Intermediate doses may be used in some instances and flexibility is an integral part of the protocol. If two or more patients experience DLT at the lower dose level, then the MTD has again been established and additional patients will be treated at the next lower dose (unless sufficient numbers of patients have already been treated at that dose level).
The RD is defined as the highest dose level at which less than 2 of 6 patients experience DLT during cycles 1 or 2. At the RD, sufficient numbers of patients will be accrued so at least 6 patients receive at least 2 cycles of therapy, and at least 4 patients receive at least 4 courses of treatment.
This trial was launched in May 00 and last patient was included in March 02. 31 patients were treated.
Tumours included: Sarcomas (19), UOT (1), Lung (1), Ovary (4), Breast (2), Uterus (1), Melanoma (2), Colorectal (1)

[2] = tested on: cancer patients; conditions: cited from earlier work
[3] = tested on: cynomolgus monkeys; conditions: cited from earlier work
[4] = tested on: canine progenitor cells; conditions: cited from earlier work
[5] = 3 hour weekly ×3/4 weeks infusion, per patient, number (%)

## ecteinascidin 743 [ET-743]
[1]; 29 patients evaluated
  G3 transaminases: 10%
[1]; [5]
  ALT G2(%): 9(31) %
  ALT G3(%): 3(10.3) %
  ALT G4(%): 0%
  Alk Phos G2(%): 1(3.4) %
  Alk Phos G3(%): 2(6.9) %
  Alk Phos G4(%): 0%
  Bilirubin G2(%): 0%
  Bilirubin G3(%): 1(3.4) %
  Bilirubin G4(%): 0%
  Creatine Kinase G2(%): 1(3.4) %
  Creatine Kinase G3(%): 0%
  Creatine Kinase G4(%): 1(3.4) %
  Creatinine G2(%): 1(3.4) %
  Creatinine G3(%): 0%
  Creatinine G4(%): 0%
  Hemoglobin G2(%): 9(31) %
  Hemoglobin G3(%): 1(3.4) %
  Hemoglobin G4(%): 0%
  Neutrophils G2(%): 1(3.4) %
  Neutrophils G3(%): 2(6.9) %
  Neutrophils G4(%): 1(3.4) %
  Platelets G2(%): 1(3.4) %
  Platelets G3(%): 0%
  Platelets G4(%): 0%
[1]; Weekly schedule
  Grade 3-4 ALT: 10.3%
  Grade 3-4 Bilirubin: 3.4%
  Grade 3-4 Creatinine: 0%
  Grade 3-4 Creatinine Kinase: 3.4%
  Grade 3-4 Hemoglobin: 3.4%
  Grade 3-4 Neutrophils: 10.3%
  Grade 3-4 Platelets: 0%
  Serious renal toxicity (G3-4): has not been seen
[1]; at the 4th level (650)
  DLT defining the MTD: Long lasting grade 3 neutropenia, and g3 Bilirubin toxicity
[1]; ovarian cancer
  long lasting stabilizations: 2
[1]; patients with sarcoma
  minor responses: 2
[1]; per patient, 29 patients evaluated
  grade 3-4 neutropenia: 10.3%
[1]; sarcoma
  long lasting stabilizations: 2
[1]; weekly schedule vs previous schedules
  reduction of the most frequent toxicities: more than 3 times
[1]; weekly×3/4 weeks, 3 hour infusion
  MTD: 650 mcg/sm
[1]; ×3 every 4 weeks, 3 hour infusion
  recommended dose: 580 mcg/sm
[2]; 72 hr infusion every 3 weeks
  MTD: 1200 μg/M^2
  RD: 1050 μg/M^2
[2]; at 1200 μg/M^2 (MTD)
  reversible grade 4 transaminases elevation: 2 out of 9
[2]; at the RD (1050 μg/M^2), % of patients
  grade 3 hypertransaminasemia: 50%
[2]; at the RD (1050 μg/M^2)
  grade 4 hypertransaminasemia: there was not any grade 4 hypertransaminasemia
[3]; fractionated dosing
  toxicity: only minor toxicity
[3]; single doses
  toxicity: hepatic and hematological toxicity, emesis and diarrhoea
[4]
  sensitivity of progenitor cells: equal sensitivity of erythropoid and myeloid cells
